Experimental data published in US20240100013A1, “SOTAGLIFLOZIN FOR IMPROVING LEFT ATRIAL FUNCTION” (CHARITÉ-UNIVERSITÄTSMEDIZIN BERLIN, priority 2021, published 2024).

Assays:
LA cardiomyocytes = experiment: Spontaneous SR Ca2+ release events (SCaEs) of isolated LA cardiomyocytes; format: cell-based, rat; settings: baseline conditions; antioxidative treatment; both HFpEF groups
Excerpt: Cardiomyocyte isolation. LA and LV cardiomyocytes were isolated using enzymatic digestion as previously described in detail. See Bode D, Guthof T, Pieske B M, Heinzel F R, Hohendanner F: “Isolation of Atrial Cardiomyocytes from a Rat Model of Metabolic Syndrome-related Heart Failure with Preserved Ejection Fraction,” J Vis Exp 2018(137).
Solutions and chemicals. Chemicals were obtained from Sigma-Aldrich (St. Louis, MO, USA) unless noted otherwise. The dual SGLT1/2 inhibitor sotagliflozin was provided by Lexicon Pharmaceuticals (The Woodlands, TX, USA). Fluorescent dyes Fura-2 AM, Rhod-2 AM, MitoTracker red, MitoTracker green, TMRE and H2-DCF were obtained from Thermo Fisher Scientific (Waltham, MA, USA). Tyrode solution contained (in mM): 130 NaCL, 4 KCl, 2 CaCl, 1 MgCl2, 10 Glucose, 10 HEPES; pH adjusted to 7.4 with NaOH. LA cardiomyocytes were plated on laminin-coated glass coverslips. 20 mM caffeine was added to Tyrode solution to induce sarcoplasmic reticulum (SR) Ca^2+ release and obtain a measure of SR Ca^2+ content. […]
Ca^2+ measurements and sarcomere shortening. Radiometric Ca^2+ measurements (excitation: 340 nm and 385 nm, emission: 510±10 nm; [Ca^2+] expressed as the ratio R=F340/F380) were performed either with a CytoCypher MultiCell System (CytoCypher BV, Netherlands; FIGS. 1C-F, 2D-G, 4A-F) or an Axiovert 200 microscope (Zeiss, Oberkochen, Germany) fluorescence imaging assembly (FIGS. 2A-C, 2H-J, 3A-E, 6E-I). […] Experiments were conducted at 37° C. and CaT were recorded at steady state (following electric stimulation).
CaT and sarcomere shortening of LA and LV cardiomyocytes were recorded for 10 s at 3 Hz stimulation. See FIGS. 2D-G, 4A-F. Electric stimulation was turned off and spontaneous SR Ca^2+ release events (See Voigt N, Heijman J, Wang Q, Chiang D Y, Li N, Karck M, Wehrens X H T, Nattel S, Dobrev D: “Cellular and molecular mechanisms of atrial arrhythmogenesis in patients with paroxysmal atrial fibrillation,” Circulation 2014, 129(2):145-156) (SCaEs) immediately recorded for a duration of 10 s (FIG. 1C-F). […]

[1] = system: high-fat diet/streptozotocin-induced diabetic rats; settings: via improved mitochondrial function; cited from earlier work

SMILES | occurrence of SCaEs (LA cardiomyocytes) | diabetes related atrial fibrillation [1]
CC(=O)N[C@@H](CS)C(=O)O [acetylcysteine] | decreased | –
OC[C@H]1O[C@@H](c2ccc(Cl)c(Cc3ccc(O[C@H]4CCOC4)cc3)c2)[C@H](O)[C@@H](O)[C@@H]1O [empagliflozin] | – | mitigate
